pKd: −log10 of the molar value.
Target: α7 nAChR subtype (Rattus norvegicus, UniProt Q05941)
Type: binding
Details: read-out: KD of radioligand (saturation curves, one site model)

Sequence of α7 nAChR subtype (Q05941 23-502 limits assumed): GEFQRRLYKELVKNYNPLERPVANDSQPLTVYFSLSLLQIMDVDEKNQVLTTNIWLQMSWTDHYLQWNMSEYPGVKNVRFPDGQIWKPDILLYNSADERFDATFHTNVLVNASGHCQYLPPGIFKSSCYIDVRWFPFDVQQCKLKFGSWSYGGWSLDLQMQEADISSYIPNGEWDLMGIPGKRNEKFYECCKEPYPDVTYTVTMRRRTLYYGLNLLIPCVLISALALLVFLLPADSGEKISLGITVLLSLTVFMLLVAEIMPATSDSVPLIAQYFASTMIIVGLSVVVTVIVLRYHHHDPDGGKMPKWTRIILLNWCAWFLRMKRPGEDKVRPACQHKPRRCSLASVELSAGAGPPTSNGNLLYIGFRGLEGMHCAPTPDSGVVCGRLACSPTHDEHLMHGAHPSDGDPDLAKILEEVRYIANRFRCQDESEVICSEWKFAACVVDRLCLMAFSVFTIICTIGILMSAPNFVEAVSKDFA

**Q.** With “125I-α-Bungarotoxin [Example 125I-α-BTX]” as the substance, how does the pKd read?
**A.** 8.78

From US7214688B2 (priority 2000, dated 2007)
